Reference: paper PMC6895048, “4,5-Disubstituted 1,2,3-triazoles: Effective Inhibition of Indoleamine 2,3-Dioxygenase 1 Enzyme Regulates T cell Activity and Mitigates Tumor Growth” (Scientific Reports, 2019)
One block for each compound: values may come before it.

Columns and labels:
[1] = target: T1, purified human IDO1 enzyme (Homo sapiens, UniProt P14902); assay: IDO1 inhibition assay by the spectrometric method (pDMAB); type: biochemical; details: for IC50: purified human IDO1, spectrophotometric, mean of three independent assays, read-out: hIDO1 IC50
T1 construct: made in house; host or cells: Escherichia coli M15 (pQE30 vector with pREP4 plasmid)
T1 sequence (P14902 whole entry): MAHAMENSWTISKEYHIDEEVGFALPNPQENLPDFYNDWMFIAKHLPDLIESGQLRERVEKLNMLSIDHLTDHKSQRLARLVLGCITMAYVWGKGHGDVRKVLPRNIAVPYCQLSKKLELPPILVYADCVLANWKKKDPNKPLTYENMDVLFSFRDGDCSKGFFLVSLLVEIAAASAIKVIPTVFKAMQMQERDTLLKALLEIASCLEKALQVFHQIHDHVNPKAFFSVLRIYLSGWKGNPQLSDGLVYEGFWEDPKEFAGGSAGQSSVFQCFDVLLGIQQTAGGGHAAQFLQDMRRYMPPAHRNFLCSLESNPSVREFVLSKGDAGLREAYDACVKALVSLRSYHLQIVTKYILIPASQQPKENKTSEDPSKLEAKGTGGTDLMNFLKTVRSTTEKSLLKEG
Procedure: Both IDO1 and TDO inhibition assays were performed according to the reported procedures[26]–[30],[50],[51]. […] In the assay system, the minimum and maximum amount of DMSO was 0.02% and 2%, respectively. […] The concentration of the inhibitors was varied from 100 µM to 32 nM by serial dilution technique. Then, the reaction was quenched with 100 µL of 30% (w/v) trichloroacetic acid and was incubated for further 15 minutes at 65 °C. After that, 2% (w/v) pDMAB was used to quantify the amount of kynurenine formation. The absorbance of the reaction mixture was recorded by UV-Vis spectrophotometer at 480 nm.

[2] = target: T2, TDO enzyme (Homo sapiens, UniProt P48775); assay: HPLC based TDO inhibition assay; type: biochemical
T2 construct: 6xHis (N); made in house; host or cells: Escherichia coli BL21 (DE3) (pET 28a vector)
T2 sequence (P48775 whole entry): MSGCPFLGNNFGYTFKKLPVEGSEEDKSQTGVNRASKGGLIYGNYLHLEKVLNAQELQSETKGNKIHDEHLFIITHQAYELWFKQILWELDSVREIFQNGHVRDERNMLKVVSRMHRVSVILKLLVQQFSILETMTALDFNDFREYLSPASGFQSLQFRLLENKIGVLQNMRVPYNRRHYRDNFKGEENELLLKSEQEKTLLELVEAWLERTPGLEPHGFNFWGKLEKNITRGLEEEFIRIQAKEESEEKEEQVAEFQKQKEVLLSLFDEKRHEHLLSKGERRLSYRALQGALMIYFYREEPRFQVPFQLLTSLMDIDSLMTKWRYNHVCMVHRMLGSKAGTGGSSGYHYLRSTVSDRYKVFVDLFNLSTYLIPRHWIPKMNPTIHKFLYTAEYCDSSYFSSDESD
Procedure: (§1) HPLC based IDO1, and TDO inhibition assays were performed according to the earlier reported procedure[19],[27]–[30]. The reaction mixture (250 µL) contained KPB (100 mM, pH 6.5 for IDO1 and 50 mM, pH 8.0 for TDO), sodium ascorbate (20 mM), methylene blue (10 µM), catalase (240 nM, from bovine liver, Sigma), L-Trp (150 µM), purified enzyme (40 nM for IDO1 and 25 nM for TDO), DMSO (0.05%, v/v), Triton-X 100 (0.01%, v/v) and inhibitors. The concentration of the compound was varied from 100 µM to 32 nM by serial dilution. The mixture was incubated at 37 °C for 1 hour in the absence and presence of the synthesized compounds. The reaction was then quenched using 50 µL of 30% (w/v) trichloroacetic acid and incubated at 65 °C for additional 15 minutes to allow complete hydrolysis of N-formylkynurenine to kynurenine. After that, the mixture was centrifuged at 10,000 rpm for 10 minutes, and 100 µL of clear solution was transferred to another tube for HPLC analysis. Then, 20 µL of the reaction mixture was then injected through Ascentis® express C18, 2.7 µm HPLC column with a flow rate of 0.5 mL/minute of the mobile phase containing 50% sodium citrate buffer (40 mM, pH 2.25) and 50% methanol (v/v) with 400 µM SDS. The area under the curve at 365 nm chromatogram corresponding to the kynurenine formation was recorded, and % of inhibition was calculated using standard curve prepared with pure kynurenine (from Sigma) under similar experimental conditions.

[3] = target: T3, IDO1 (Homo sapiens, UniProt P14902); assay: Cellular IDO1 activity assay in IFN-γ induced MDA-MB-231 cells; type: cell-based; set-up: induce the expression of the native IDO1 enzyme from its mRNA in the MDA-MB-231 cells; endogenous in cells; host or cells: MDA-MB-231 cells induced with human IFN-γ (50 ng/mL); details: IDO1 expression induced by human IFN-γ (50 ng/mL); mean of three
T3 sequence (P14902 whole entry): as the sequence (P14902 whole entry) above
Procedure: The cellular enzyme activity assay was performed according to the reported procedure with minor modifications[19],[27]–[30],[33],[54]. Briefly, MDA-MB-231 breast cancer cells were selected for this assay because of the presence of IDO1 mRNA in this cell line. First, cells were grown in DMEM/F12 complete media overnight. Then different concentration of human interferon-gamma (IFN-γ) (from 5–1000 ng/mL) was added to it and incubated for 48 hours. This treatment is reported to allow over-expression of IDO1 enzyme in MDA-MB-231 cells. […] Sterile cell-culture grade PBS was used to wash the cells by centrifugation technique. Then, the pellet was lysed in 10 mM HEPES buffer by passing through a sterile syringe. The lysate was used for standard IDO1 assay as mentioned earlier. The relative amount of N-formylkynurenine generated in the presence of the different concentration of IFN-γ was used to optimize the required concentration of IFN-γ for the IDO1 inhibition assay. […] Cells stimulated with IFN-γ alone were used as negative control, while cells stimulated with L-Trp without compound served as positive control. The cells were washed with sterile cell culture grade PBS and lysed in 10 mM HEPES buffer by sterile syringe. The lysate was used for standard IDO1 assay, as mentioned earlier, and the extent of IDO1 enzyme inhibition was determined for the selected compounds.

[4] = target: T4, purified human TDO enzyme (Homo sapiens, UniProt P48775); assay: TDO inhibition assay by the spectrometric method; type: biochemical; details: spectrophotometric
T4 construct: 6xHis (N); made in house; host or cells: Escherichia coli BL21 (DE3) (pET 28a vector)
T4 sequence (P48775 whole entry): as the sequence (P48775 whole entry) above
Procedure: Both IDO1 and TDO inhibition assays were performed according to the reported procedures[26]–[30],[50],[51]. The solubility of the compounds in water was either moderate or poor. […] In the assay system, the minimum and maximum amount of DMSO was 0.02% and 2%, respectively. The standard reaction mixture (500 μL) containing KPB (100 mM, pH 6.5 for IDO1 enzyme and 50 mM, pH 8.0 for TDO enzyme), sodium ascorbate (20 mM), methylene blue (10 µM), catalase (240 nM, from bovine liver), L-Trp (150 µM), purified enzyme (40 nM for IDO1 and 25 nM for TDO), DMSO (0.05%, v/v), Triton-X 100 (0.01%, v/v) and inhibitors was incubated at 37 °C for 1 hour. The concentration of the inhibitors was varied from 100 µM to 32 nM by serial dilution technique. Then, the reaction was quenched with 100 µL of 30% (w/v) trichloroacetic acid and was incubated for further 15 minutes at 65 °C. After that, 2% (w/v) pDMAB was used to quantify the amount of kynurenine formation. The absorbance of the reaction mixture was recorded by UV-Vis spectrophotometer at 480 nm. The Km = 59.76 µM and Kcat = 6.18 sec^−1.

[5] = target: T3, IDO1; assay: Kynurenine assay by HPLC analysis, IDO1; type: biochemical; set-up: made in house; host or cells: Escherichia coli M15 (pQE30 vector with pREP4 plasmid); details: for IC50: HPLC based IDO1 inhibition assay; for % Of inhibition for IDO1 enzyme: HPLC
Procedure: as §1

- IC50 [1]: 25.2 ± 1.7 µM
SMILES: Fc1ccc(-c2n[nH]nc2-c2ccc(F)cc2)cc1 [Compound 1f]

- IC50 [1]: 2.55 ± 0.033 µM
SMILES: CCOC(=O)c1n[nH]nc1-c1cccc(Cl)c1 [Compound 2d]

- IC50 [1]: 2.51 ± 0.06 µM
SMILES: Clc1cccc(-c2n[nH]nc2-c2cccc(Cl)c2)c1 [Compound 1d]

- IC50 [1]: 18.4 ± 1.68 µM
SMILES: CCOC(=O)c1n[nH]nc1-c1ccc(Br)cc1 [Compound 2h]

- IC50 [1]: 6.61 ± 0.355 µM
SMILES: NC(=O)c1n[nH]nc1-c1cccc(F)c1 [Compound 3c]

- % Of inhibition for TDO enzyme ([2]; 32 nM): 6%
- % Of inhibition for TDO enzyme ([2]; 160 nM): 18%
- % Of inhibition for TDO enzyme ([2]; 800 nM): 26%
- % Of inhibition for TDO enzyme ([2]; 4 µM): 38%
- % Of inhibition for TDO enzyme ([2]; 20 µM): 41%
- % Of inhibition for TDO enzyme ([2]; 100 µM): 54%
- EC50 [3]: 1.23 ± 0.021 µM
- % of Enzyme inhibition (TDO) ([4]; 32 nM): 4%
- % of Enzyme inhibition (TDO) ([4]; 160 nM): 8%
- % of Enzyme inhibition (TDO) ([4]; 800 nM): 16%
- % of Enzyme inhibition (TDO) ([4]; 4 µM): 18%
- % of Enzyme inhibition (TDO) ([4]; 20 µM): 22%
- % of Enzyme inhibition (TDO) ([4]; 100 µM): 30%
- IC50 [5]: 8.944 ± 0.087 µM
- % Of inhibition for IDO1 enzyme ([5]; 32 nM): 11%
- % Of inhibition for IDO1 enzyme ([5]; 160 nM): 13%
- % Of inhibition for IDO1 enzyme ([5]; 800 nM): 29%
- % Of inhibition for IDO1 enzyme ([5]; 4 µM): 30%
- % Of inhibition for IDO1 enzyme ([5]; 20 µM): 57%
- % Of inhibition for IDO1 enzyme ([5]; 100 µM): 65%
- IC50 [1]: 17.4 ± 0.918 µM
SMILES: O=C(O)c1n[nH]nc1-c1ccc(F)c(F)c1 [Compound 4a]

- IC50 [1]: 3.81 ± 0.24 µM
SMILES: O=C(N/C(Cc1ccc(F)c(F)c1)=N\O)c1n[nH]nc1-c1ccc(F)c(F)c1 [Compound 4h]

- IC50 [1]: 2.94 ± 0.034 µM
SMILES: NC(=O)c1n[nH]nc1-c1ccc(F)cc1 [Compound 3f]

- IC50 [1]: 7.08 ± 0.691 µM
SMILES: Cc1ccc(-c2n[nH]nc2C(N)=O)cc1 [Compound 3b]

- IC50 [1]: 26.7 ± 2.2 µM
SMILES: NC(=O)c1n[nH]nc1-c1cccc(Br)c1 [Compound 3e]

- IC50 [1]: 2.36 ± 0.308 µM
SMILES: CC(=O)Nc1ccc(/C(=N/O)NC(=O)c2n[nH]nc2-c2ccc(F)c(F)c2)cc1 [Compound 4j]

- fold stronger IDO1 inhibitory activity than 1a ([1]; in comparison with lead compound 1a): 46 fold
- IC50 [1]: 1.94 ± 0.083 µM
SMILES: Fc1ccc(-c2n[nH]nc2-c2ccc(F)c(Br)c2)cc1Br [1 l]

- IC50 [1]: 18.7 ± 0.398 µM
SMILES: O=C(NC1C2CC3CC(C2)CC1C3)c1n[nH]nc1-c1ccc(Cl)c(Cl)c1 (centres unmarked) [Compound 4e]

- % Of inhibition for TDO enzyme ([2]; 32 nM): 33%
- % Of inhibition for TDO enzyme ([2]; 160 nM): 39%
- % Of inhibition for TDO enzyme ([2]; 800 nM): 42%
- % Of inhibition for TDO enzyme ([2]; 4 µM): 47%
- % Of inhibition for TDO enzyme ([2]; 20 µM): 51%
- % Of inhibition for TDO enzyme ([2]; 100 µM): 51%
- EC50 [3]: 0.053 ± 0.004 µM
- % of Enzyme inhibition (TDO) ([4]; 32 nM): 6%
- % of Enzyme inhibition (TDO) ([4]; 160 nM): 9%
- % of Enzyme inhibition (TDO) ([4]; 800 nM): 20%
- % of Enzyme inhibition (TDO) ([4]; 4 µM): 27%
- % of Enzyme inhibition (TDO) ([4]; 20 µM): 32%
- % of Enzyme inhibition (TDO) ([4]; 100 µM): 60%
- IC50 [5]: 0.099 ± 0.024 µM
- % Of inhibition for IDO1 enzyme ([5]; 32 nM): 39%
- % Of inhibition for IDO1 enzyme ([5]; 160 nM): 60%
- % Of inhibition for IDO1 enzyme ([5]; 800 nM): 70%
- % Of inhibition for IDO1 enzyme ([5]; 4 µM): 88%
- % Of inhibition for IDO1 enzyme ([5]; 20 µM): 89%
- % Of inhibition for IDO1 enzyme ([5]; 100 µM): 89%
- IC50 [1]: 0.069 ± 0.004 µM
SMILES: NC(=O)c1n[nH]nc1-c1ccc(Cl)c(Cl)c1 [Compound 3j]

- IC50 [1]: 21.9 ± 1.27 µM
SMILES: Brc1cccc(-c2n[nH]nc2-c2cccc(Br)c2)c1 [Compound 1e]

- IC50 [1]: 2.981 ± 0.012 µM
SMILES: CCOC(=O)c1n[nH]nc1-c1cccc(Br)c1 [Compound 2e]

- inhibition at 0.032 µM ([4]; 32 nM): 8%
- inhibition at 0.16 µM ([4]; 160 nM): 10%
- inhibition at 0.8 µM ([4]; 800 nM): 19%
- inhibition at 4 µM ([4]; 4 µM): 28%
- inhibition at 20 µM ([4]; 20 µM): 40%
- inhibition at 100 µM ([4]; 100 µM): 59%
- IC50 [1]: 90 ± 2.94 µM
SMILES: c1ccc(-c2nn[nH]c2-c2ccccc2)cc1 [Compound 1a, 4,5-diphenyl 2H-1,2,3-triazole]

- IC50 [1]: 31.4 ± 4.21 µM
SMILES: CCOC(=O)c1n[nH]nc1-c1cccc(F)c1 [Compound 2c]
